One test deals with IRF-3. Put plainly: Microaffinity isolation/Western blot for IRF-3 bound to RANTES ISRE. The class given is cell-based, human. Conditions: nuclear extracts, RSV 12 hours. On the procedure:
Microaffinity isolation assay. Microaffinity purification of proteins binding to the RANTES ISRE was performed using a two-step biotinylated DNA-streptavidin capture assay (20). In this assay, duplex oligonucleotides are chemically synthesized containing 5′ biotin (Bt) on a flexible linker (Genosys, the Woodlands, TX). Four hundred micrograms of 12 hours-infected A549 cells nuclear extracts were incubated at 4° C. for 30 minutes with 50 pmoles of Bt ISRE, in the absence or presence of 10 fold molar excess of non-biotinylated ISRE wild type (WT) or mutated (MUT). The binding buffer contained 8 μg poly dI/dC (as nonspecific competitor) and 5% (v/v) glycerol, 12 mM HEPES, 80 mM NaCl, 5 mM DTT, 5 mM Mg2Cl, 0.5 mM EDTA. One hundred μl of a 50% slurry of pre-washed streptavidin-agarose beads was then added to the sample, and incubated at 4° C. for an additional 20 minutes with gentle rocking. Pellets were washed twice with 500 μl binding buffer, and the washed pellets were resuspended in 100 μl 1×SDS-PAGE buffer, boiled and fractionated on a 10% SDS-polyacrylamide gel. After electrophoresis separation, proteins were transferred to polyvinylidene difluoride (PVDF) membrane for Western blot analysis.
Western Immunoblot. Total cell lysates and cytoplasmic and nuclear proteins were prepared as previously described, fractionated by SDS-PAGE and transferred to PVDF membrane (20). […]
(In general: In western blotting, separated proteins are transferred to a membrane and probed.)

A further test concerns IRF-7. Put plainly: Western blot of IRF-7 in total cell lysates of RSV-infected A549 cells. The format is cell-based, human. The settings on record: whole cell extracts, RSV 12 hours, 400 μM. On the procedure:
Western Immunoblot. Total cell lysates and cytoplasmic and nuclear proteins were prepared as previously described, fractionated by SDS-PAGE and transferred to PVDF membrane (20). Membranes were blocked with 5% albumin in TBS-Tween and incubated overnight with a rabbit polyclonal antibody to IRF-1, -3 and -7 (Santa Cruz Biotech, Santa Cruz, Calif.). For secondary detection, a horseradish-coupled anti-rabbit or anti-mouse antibody was used in the enhanced chemiluminescence assay (Amersham Pharmacia Biotec, Arlington Heights, Ill.).

For another test, the system named is human IRF-7 promoter. Put plainly: IRF-7 promoter luciferase reporter in A549 cells. The class given is cell-based. On the procedure:
Cell transfection. To investigate IRF-1 and -7 gene transcription, A549 cells were transiently transfected with the IRF-1 or -7 promoter, linked to the luciferase reporter gene. Logarithmically growing A549 cells were transfected in triplicate in 60 mm petri dishes by DEAE-Dextran, as previously described (20). Cells were incubated in 2 ml of HEPES buffered DMEM (10 mM Hepes, pH 7.4) containing 20 μl of 60 mg/ml DEAE-Dextran (Amersham Pharmacia Biotec, Arlington Heights, Ill.) premixed with 6 μg of either IRF-1 or -7 plasmids and 1 μg CMV-β galactosidase internal control plasmid. After 3 hours, media was removed and 0.5 ml of 10% (v/v) DMSO in PBS was added to the cells for 2 minutes. Cells were washed with PBS and cultured overnight in 10% FBS/DMEM. The next morning, cells were infected with RSV and cells were lysed at different times post-infectionto measure independently luciferase and galactosidase reporter activity, as previously described (20). Luciferase was normalized to the internal control galactosidase activity. All experiments were performed in duplicate or triplicate.
In general terms: A reporter such as luciferase makes a cellular process visible.

The record followed here is patent US6699459B2, “Methods of treating lung inflammation” (The Board of Regents of the University of Texas System, priority 2001, dated 2004).

Consider `COc1ccc(O)c(C(C)(C)C)c1` [BHA, butylated hydroxyanisol], for which the “IRF-3 binding to RANTES ISRE” value in the test on IRF-3 is recorded as “almost completely abolished”. Further, the “RSV-induced IRF-7 protein synthesis” value with IRF-7 is listed as “almost completely abolished”. The “basal level of transcription (IRF-7 promoter)” value in the test on human IRF-7 promoter (A549 cells) is given as “did not affect”. In addition, the “RSV-induced luciferase activity (IRF-7 promoter)” value in the test on human IRF-7 promoter (RSV 6 hours, 400 μM) is reported as “completely abolished”.
